The text below walks through data of US11643438B2, “Antimicrobial peptides and methods of use” (priority 2018, dated 2023).

Experiment [1] has as its system Candida albicans SC5314. The experiment in a line: Antifungal MIC80/MFC assay, fungal pathogen panel.
Experiment [2] concerns Candida albicans ATCC 10231. Put plainly: Antifungal MIC80/MFC assay, fungal pathogen panel. The following applies: ATCC10231.
Experiment [3] relates to Candida parapsilosis ATCC 22019 (Y-12969). Put plainly: Antifungal MIC80/MFC assay, fungal pathogen panel. The conditions noted are these: Lodderomyces parapsilosis, ATCC22019.
Experiment [4] deals with Candida tropicalis ATCC750 (Y-12699). The experiment in a line: Antifungal MIC80/MFC assay, fungal pathogen panel. The conditions noted are these: Candida tropicalis, ATCC750.
The subject of experiment [5] is Candida krusei ATCC 6258 (Y-7179). The experiment in a line: Antifungal MIC80/MFC assay, fungal pathogen panel. The following applies: Pichia kudriavzevii, ATCC6258.
Experiment [6] deals with Cryptococcus neoformans H99. Put plainly: Antifungal MIC80/MFC assay, fungal pathogen panel.
The test system of experiment [7] is Aspergillus fumigatus MYA 3627. Put plainly: Antifungal MIC80/MFC assay, fungal pathogen panel. The conditions noted are these: MYA3627.
In experiment [8] the test system is Aspergillus fumigatus NRRL6113. The experiment in a line: Antifungal MIC80/MFC assay, fungal pathogen panel.
For experiment [9], the system named is Aspergillus fumigatus NRRL5109. Put plainly: Antifungal MIC80/MFC assay, fungal pathogen panel.
Experiment [10] relates to Aspergillus flavus NRRL485. Put plainly: Antifungal MIC80/MFC assay, fungal pathogen panel.
The subject of experiment [11] is Aspergillus niger FGSC A732. Put plainly: Antifungal MIC80/MFC assay, fungal pathogen panel. The following applies: Aspergillus niger, FGSCA732.
For experiment [12], the system named is Aspergillus terreus 191A6. The experiment in a line: Antifungal MIC80/MFC assay, fungal pathogen panel.
The test system of experiment [13] is Curvularia lunata NRRL6409. Put plainly: Antifungal MIC80/MFC assay, fungal pathogen panel.
The test system of experiment [14] is Rhizopus oryzae FGSC 9543. Put plainly: Antifungal MIC80/MFC assay, fungal pathogen panel. The conditions noted are these: Rhizopus arrhizus, FGSC9543.
Experiment [15] concerns Mucor circinelloides 235C7. The experiment in a line: Antifungal MIC80/MFC assay, fungal pathogen panel.
In a further experiment the test system is Fusarium solani 243G2. The experiment in a line: Antifungal MIC80/MFC assay, fungal pathogen panel.
Experiment [16] deals with Paecilomyces lilacinus 165E10. The experiment in a line: Antifungal MIC80/MFC assay, fungal pathogen panel. The conditions noted are these: Purpureocillium lilacinum, 165E10.
Experiment [17] relates to Hamigera insecticola NRRL35442. Put plainly: Antifungal MIC80/MFC assay, fungal pathogen panel.
In experiment [18] the test system is Candida albicans SC5314. Put plainly: Ex vivo model of fungal keratitis (porcine cornea). The following applies: for antifungal activity (fungal growth/infection), in words: 0.1% 118A, 2% fluconazole, 5% natamycin, FIG. 11; for CFU: 118A 0.1% (1 mg/ml), natamycin 5% (50 mg/ml), fluconazole 2% (20 mg/ml).
Another experiment relates to C. albicans SC5314 Flu^R. The experiment in a line: Ex vivo model of fungal keratitis (porcine cornea). More on the design: species or system Candida albicans. The following applies: C. albicans SC5314 Flu^R; 118A 0.1% (1 mg/ml), natamycin 5% (50 mg/ml), fluconazole 2% (20 mg/ml).
Experiment [19] relates to Aspergillus fumigatus NRRL5109. The experiment in a line: Ex vivo model of fungal keratitis (porcine cornea). The conditions noted are these: for antifungal activity (fungal growth/infection), in words: Aspergillus fumigatus NRRL 5109, 0.1% 118A, 2% fluconazole, 5% natamycin, FIG. 13; for CFU: Aspergillus fumigatus NRRL5109, 118A 0.1% (1 mg/ml), natamycin 5% (50 mg/ml), fluconazole 2% (20 mg/ml).

For a further experiment, the system named is Alternaria brassicicola. The experiment in a line: MIC/MFC against phytopathogenic (endophytic) fungi.
The subject of another experiment is Alternaria brassicae. The experiment in a line: MIC/MFC against phytopathogenic (endophytic) fungi.
The subject of the next experiment is Alternaria tennuissiema. The experiment in a line: MIC/MFC against phytopathogenic (endophytic) fungi.
In another experiment the test system is Fusarium oxysporum. Put plainly: MIC/MFC against phytopathogenic (endophytic) fungi.
The next experiment deals with Fusarium tricinctum. Put plainly: MIC/MFC against phytopathogenic (endophytic) fungi.
For the next experiment, the system named is Mycosphaerella populorum. The experiment in a line: MIC/MFC against phytopathogenic (endophytic) fungi. The conditions noted are these: Sphaerulina musiva.
For another experiment, the system named is Nodulosporium spp. The experiment in a line: MIC/MFC against phytopathogenic (endophytic) fungi.
The test system of a further experiment is P. glomerata. Put plainly: MIC/MFC against phytopathogenic (endophytic) fungi.

In brackets after ≈: the same amount, converted by molar mass. Entries after “also recorded” stand apart in the source; their conditions may differ. Where two headings read alike, the source gives them in different places.

Broadly, the MFC is the lowest tested concentration that kills the fungus rather than only halting it. The low end stands for greater fungicidal potency, the high end for weaker fungicidal potency. Usually MIC80 stands for the lowest concentration that inhibits either 80% of growth or 80% of the strains tested, depending on the study. Higher therefore signals weaker potency. In general, MIC refers to the smallest concentration in the dilution series that meets the test's criterion for growth inhibition. A high value points to a need for much substance.

On to `CCC(C)n1ncn(-c2ccc(N3CCN(c4ccc(OCC5COC(Cn6cncn6)(c6ccc(Cl)cc6Cl)O5)cc4)CC3)cc2)c1=O` (stereo not shown) [ITC, itraconazole], for which the MFC in the experiment with Candida albicans SC5314 [1] is over 10 µM; in [2], over 10 µM; in [3], 5 µM (≈ 3.53 µg/mL); in experiment [4], over 10 µM; in experiment [5], 2.5 µM (≈ 1.76 µg/mL); in experiment [6], over 10 µM. In addition, the MFC in experiment [7] is over 10 µM; in experiment [8], over 10 µM; in experiment [9], 10 µM (≈ 7.06 µg/mL); in [10], 0.6 µM (≈ 0.423 µg/mL); in experiment [11], 5 µM (≈ 3.53 µg/mL); in [12] it was 2.5 µM (≈ 1.76 µg/mL). Moreover, the MFC in experiment [13] was 5 µM (≈ 3.53 µg/mL); in experiment [14] it was 0.6 µM (≈ 0.423 µg/mL); in [15] it was over 10 µM; in the experiment on Fusarium solani 243G2 it was 5 µM (≈ 3.53 µg/mL); in [16], 1.25 µM (≈ 0.882 µg/mL); in [17] it was 1.25 µM (≈ 0.882 µg/mL). Further, the MIC80 with Candida albicans SC5314 [1] was determined as 0.125 µM (≈ 0.0882 µg/mL); in [2], 0.06 µM (≈ 0.0423 µg/mL); in experiment [3] it was 0.6 µM (≈ 0.423 µg/mL); in [4], 0.6 µM (≈ 0.423 µg/mL); in experiment [5] it was 0.6 µM (≈ 0.423 µg/mL); in experiment [6], 0.6 µM (≈ 0.423 µg/mL). For the same compound, the MIC80 in [7] turned out to be 5 µM (≈ 3.53 µg/mL); in experiment [8], 1.25 µM (≈ 0.882 µg/mL); in experiment [9] it was 1.25 µM (≈ 0.882 µg/mL); in experiment [10], 0.15 µM (≈ 0.106 µg/mL); in experiment [11], 2.5 µM (≈ 1.76 µg/mL); in [12] it was 0.6 µM (≈ 0.423 µg/mL). In addition, the MIC80 in experiment [13] is 2.5 µM (≈ 1.76 µg/mL); in experiment [14], 0.6 µM (≈ 0.423 µg/mL); in experiment [15], 10 µM (≈ 7.06 µg/mL); in the experiment with Fusarium solani 243G2 it was 2.5 µM (≈ 1.76 µg/mL); in experiment [16], 2.5 µM (≈ 1.76 µg/mL); in [17] it was 0.3 µM (≈ 0.212 µg/mL).

For `C[C@@H]1C/C=C/C=C/C=C/C=C/[C@H](O[C@@H]2O[C@H](C)[C@@H](O)[C@H](N)[C@@H]2O)C[C@@H]2O[C@](O)(C[C@@H](O)C[C@H]3O[C@@H]3/C=C/C(=O)O1)C[C@H](O)[C@H]2C(=O)O` [Natamycin, natamycin], the figures for the “antifungal activity (fungal growth/infection), in words” value (in the experiment on Candida albicans SC5314 [18]; in experiment [19]) were “inhibited the growth; also recorded: reduced the infection” and “inhibited the growth; also recorded: reduced the fungal burden”, respectively. Also, the CFU (in the experiment with Candida albicans SC5314 [18]; with C. albicans SC5314 Flu^R; in [19]) was 0 CFU in each case.

Consider `OC(Cn1cncn1)(Cn1cncn1)c1ccc(F)cc1F` [Fluconazole, fluconazole], for which the figures for the “antifungal activity (fungal growth/infection), in words” value (with Candida albicans SC5314 [18]; in experiment [19]; in experiment [19] (listed as fluconazole)) were “reduced the infection”, “did not inhibit the growth” and “unable to fully inhibit the fungus”, respectively. Besides, the CFU in the experiment on Candida albicans SC5314 [18] was 13.7 ± 19.3 CFU; in the experiment on C. albicans SC5314 Flu^R, 2.2 ± 0.9 × 10^5 CFU; in experiment [19], 2.0 ± 1.0 × 10^4 CFU.

On to `CC[C@H](C)C[C@H](C)CCCCCCCCC(=O)N[C@H]1C[C@@H](O)[C@@H](NCCN)NC(=O)[C@@H]2[C@@H](O)CCN2C(=O)[C@H]([C@H](O)CCN)NC(=O)[C@H]([C@H](O)[C@@H](O)c2ccc(O)cc2)NC(=O)[C@@H]2C[C@@H](O)CN2C(=O)[C@H]([C@@H](C)O)NC1=O` [CASP, caspofungin], for which the MFC in the experiment on Candida albicans SC5314 [1] was 0.625 µM (≈ 0.683 µg/mL); in experiment [2], 5 µM (≈ 5.47 µg/mL); in [3], 1.25 µM (≈ 1.37 µg/mL); in experiment [4], 0.15 µM (≈ 0.164 µg/mL); in [5] it was 0.3 µM (≈ 0.328 µg/mL); in experiment [6] it was over 10 µM. Further, the minimal fungicidal concentration (MFC) in experiment [7], in [8], in experiment [9], in [10], in experiment [11] and in [12] was over 10 µM in each case. For the same compound, the MFC in experiment [13] was 5 µM (≈ 5.47 µg/mL); in experiment [14], over 10 µM; in experiment [15], over 10 µM; against Fusarium solani 243G2 it was over 10 µM; in experiment [16], over 10 µM; in experiment [17], over 10 µM. The MIC80 was 0.03 µM (≈ 0.0328 µg/mL) in the experiment with Candida albicans SC5314 [1]; 0.03 µM (≈ 0.0328 µg/mL) in experiment [2]; 0.3 µM (≈ 0.328 µg/mL) in experiment [3]; 0.03 µM (≈ 0.0328 µg/mL) in [4]; 0.15 µM (≈ 0.164 µg/mL) in [5]; over 10 µM in [6]. The MIC80 in [7] is 0.07 µM (≈ 0.0765 µg/mL); in [8] it was over 10 µM; in experiment [9] it was over 10 µM; in experiment [10] it was over 10 µM; in experiment [11], 0.06 µM (≈ 0.0656 µg/mL); in experiment [12] it was 0.125 µM (≈ 0.137 µg/mL). In addition, the MIC80 in experiment [13] is 5 µM (≈ 5.47 µg/mL); in experiment [14], over 10 µM; in experiment [15], over 10 µM; against Fusarium solani 243G2, 0.15 µM (≈ 0.164 µg/mL); in experiment [16] it was over 10 µM; in experiment [17], 0.06 µM (≈ 0.0656 µg/mL).

Regarding `N#Cc1c[nH]cc1-c1cccc2c1OC(F)(F)O2` [Fludioxonil, fludioxonil], the minimum fungicidal concentration (MFC) in the experiment with Alternaria brassicicola was over 20 µM; in the experiment with Alternaria brassicae, 2.5 µM (≈ 0.62 µg/mL); against Alternaria tennuissiema, 1.25 µM (≈ 0.31 µg/mL); against Fusarium oxysporum, over 20 µM; against Fusarium tricinctum, over 20 µM; with Mycosphaerella populorum, over 20 µM. Besides, the MFC in the experiment on Nodulosporium spp. and with P. glomerata was over 20 µM throughout. Besides, the MIC in the experiment with Alternaria brassicicola came to 1.25 µM (≈ 0.31 µg/mL); against Alternaria brassicae it was 0.625 µM (≈ 0.155 µg/mL); in the experiment with Alternaria tennuissiema, 1.25 µM (≈ 0.31 µg/mL); in the experiment with Fusarium oxysporum, 5 µM (≈ 1.24 µg/mL); with Fusarium tricinctum, 1.25 µM (≈ 0.31 µg/mL); with Mycosphaerella populorum it was 1.25 µM (≈ 0.31 µg/mL). The MIC in the experiment with Nodulosporium spp. was 0.625 µM (≈ 0.155 µg/mL); against P. glomerata, over 20 µM; in the experiment with P. glomerata (P. glomerata, […]), “no activity in the range tested”.
